Source: the NIST ThermoML archive (doi:10.1021/acs.jced.8b00979)
Numbers after ± are expanded uncertainties.

Conditions: 288.15 K; 100 kPa; Liquid; Capillary tube (Ostwald / Ubbelohde) method
CCCC(C)O (centres undefined) [pentan-2-ol] showed a viscosity of 5.057 ± 0.2 mPa·s. Work on CCCCCO [pentan-1-ol] yielded a viscosity of 4.698 ± 0.19 mPa·s. For CCC(C)CO (centres undefined) [2-methyl-1-butanol], the viscosity was 6.439 ± 0.26 mPa·s.

Same assay, conditions: 288.15 K; 100 kPa; Liquid; Vibrating tube method
CCCC(C)O (centres undefined) [pentan-2-ol] showed a mass density of 813.34 ± 0.79 kg/m3. Compound CCCCCO [pentan-1-ol] has a mass density of 818.56 ± 0.79 kg/m3. CCC(C)CO (centres undefined) [2-methyl-1-butanol] showed a mass density of 823.35 ± 0.8 kg/m3.

Same assay, conditions: 293.15 K; 100 kPa; Liquid; Capillary tube (Ostwald / Ubbelohde) method
In the case of CCCC(C)O (centres undefined) [pentan-2-ol], the viscosity is reported as 4.174 ± 0.17 mPa·s. In the case of CCCCCO [pentan-1-ol], the viscosity is reported as 4.043 ± 0.16 mPa·s. CCC(C)CO (centres undefined) [2-methyl-1-butanol] showed a viscosity of 5.3 ± 0.21 mPa·s.

Same assay, conditions: 293.15 K; 100 kPa; Liquid; Vibrating tube method
For CCCC(C)O (centres undefined) [pentan-2-ol], the mass density was 809.38 ± 0.78 kg/m3. In the case of CCCCCO [pentan-1-ol], the mass density is reported as 814.92 ± 0.79 kg/m3. Compound CCC(C)CO (centres undefined) [2-methyl-1-butanol] has a mass density of 819.64 ± 0.79 kg/m3.

Same assay, conditions: 298.15 K; 100 kPa; Liquid; Capillary tube (Ostwald / Ubbelohde) method
Compound CCCC(C)O (centres undefined) [pentan-2-ol] has a viscosity of 3.398 ± 0.14 mPa·s. Compound CCCCCO [pentan-1-ol] has a viscosity of 3.501 ± 0.14 mPa·s. With CCC(C)CO (centres undefined) [2-methyl-1-butanol] the viscosity was 4.501 ± 0.18 mPa·s.

Same assay, conditions: 298.15 K; 100 kPa; Liquid; Vibrating tube method
CCCC(C)O (centres undefined) [pentan-2-ol] showed a mass density of 805.35 ± 0.78 kg/m3. CCCCCO [pentan-1-ol] showed a mass density of 811.26 ± 0.79 kg/m3. Work on CCC(C)CO (centres undefined) [2-methyl-1-butanol] yielded a mass density of 815.85 ± 0.79 kg/m3.

Same assay, conditions: 303.15 K; 100 kPa; Liquid; Capillary tube (Ostwald / Ubbelohde) method
Work on CCCC(C)O (centres undefined) [pentan-2-ol] yielded a viscosity of 2.82 ± 0.11 mPa·s. Work on CCCCCO [pentan-1-ol] yielded a viscosity of 3.028 ± 0.12 mPa·s. With CCC(C)CO (centres undefined) [2-methyl-1-butanol] the viscosity was 3.825 ± 0.15 mPa·s.

Same assay, conditions: 303.15 K; 100 kPa; Liquid; Vibrating tube method
CCCC(C)O (centres undefined) [pentan-2-ol] showed a mass density of 801.24 ± 0.78 kg/m3. In the case of CCCCCO [pentan-1-ol], the mass density is reported as 807.57 ± 0.78 kg/m3. With CCC(C)CO (centres undefined) [2-methyl-1-butanol] the mass density was 812.12 ± 0.79 kg/m3.

Same assay, conditions: 308.15 K; 100 kPa; Liquid; Capillary tube (Ostwald / Ubbelohde) method
CCCC(C)O (centres undefined) [pentan-2-ol] showed a viscosity of 2.336 ± 0.094 mPa·s. For CCCCCO [pentan-1-ol], the viscosity was 2.671 ± 0.11 mPa·s. With CCC(C)CO (centres undefined) [2-methyl-1-butanol] the viscosity was 3.265 ± 0.13 mPa·s.

Same assay, conditions: 308.15 K; 100 kPa; Liquid; Vibrating tube method
Compound CCCC(C)O (centres undefined) [pentan-2-ol] has a mass density of 797.05 ± 0.77 kg/m3. For CCCCCO [pentan-1-ol], the mass density was 803.86 ± 0.78 kg/m3. For CCC(C)CO (centres undefined) [2-methyl-1-butanol], the mass density was 808.29 ± 0.78 kg/m3.

Same assay, conditions: 313.15 K; 100 kPa; Liquid; Capillary tube (Ostwald / Ubbelohde) method
CCCC(C)O (centres undefined) [pentan-2-ol] showed a viscosity of 1.99 ± 0.08 mPa·s. CCCCCO [pentan-1-ol] showed a viscosity of 2.335 ± 0.094 mPa·s. Compound CCC(C)CO (centres undefined) [2-methyl-1-butanol] has a viscosity of 2.783 ± 0.11 mPa·s.

Same assay, conditions: 313.15 K; 100 kPa; Liquid; Vibrating tube method
Work on CCCC(C)O (centres undefined) [pentan-2-ol] yielded a mass density of 792.78 ± 0.77 kg/m3. CCCCCO [pentan-1-ol] gave a mass density of 800.11 ± 0.78 kg/m3. CCC(C)CO (centres undefined) [2-methyl-1-butanol] showed a mass density of 804.41 ± 0.78 kg/m3.

Same assay, conditions: 318.15 K; 100 kPa; Liquid; Capillary tube (Ostwald / Ubbelohde) method
Compound CCCC(C)O (centres undefined) [pentan-2-ol] has a viscosity of 1.706 ± 0.069 mPa·s. CCCCCO [pentan-1-ol] gave a viscosity of 2.052 ± 0.083 mPa·s. For CCC(C)CO (centres undefined) [2-methyl-1-butanol], the viscosity was 2.379 ± 0.096 mPa·s.

Same assay, conditions: 318.15 K; 100 kPa; Liquid; Vibrating tube method
Compound CCCC(C)O (centres undefined) [pentan-2-ol] has a mass density of 788.42 ± 0.77 kg/m3. In the case of CCCCCO [pentan-1-ol], the mass density is reported as 796.32 ± 0.77 kg/m3. In the case of CCC(C)CO (centres undefined) [2-methyl-1-butanol], the mass density is reported as 800.47 ± 0.78 kg/m3.

Same assay, conditions: 323.15 K; 100 kPa; Liquid; Capillary tube (Ostwald / Ubbelohde) method
For CCCC(C)O (centres undefined) [pentan-2-ol], the viscosity was 1.472 ± 0.06 mPa·s. Compound CCCCCO [pentan-1-ol] has a viscosity of 1.81 ± 0.073 mPa·s. CCC(C)CO (centres undefined) [2-methyl-1-butanol] showed a viscosity of 2.06 ± 0.083 mPa·s.

Same assay, conditions: 323.15 K; 100 kPa; Liquid; Vibrating tube method
CCCC(C)O (centres undefined) [pentan-2-ol] gave a mass density of 783.99 ± 0.76 kg/m3. For CCCCCO [pentan-1-ol], the mass density was 792.48 ± 0.77 kg/m3. CCC(C)CO (centres undefined) [2-methyl-1-butanol] showed a mass density of 796.47 ± 0.77 kg/m3.

Same assay, conditions: 328.15 K; 100 kPa; Liquid; Capillary tube (Ostwald / Ubbelohde) method
Work on CCCC(C)O (centres undefined) [pentan-2-ol] yielded a viscosity of 1.306 ± 0.053 mPa·s. For CCCCCO [pentan-1-ol], the viscosity was 1.607 ± 0.065 mPa·s. Work on CCC(C)CO (centres undefined) [2-methyl-1-butanol] yielded a viscosity of 1.787 ± 0.072 mPa·s.

Same assay, conditions: 328.15 K; 100 kPa; Liquid; Vibrating tube method
For CCCC(C)O (centres undefined) [pentan-2-ol], the mass density was 779.46 ± 0.76 kg/m3. CCCCCO [pentan-1-ol] gave a mass density of 788.61 ± 0.76 kg/m3. Compound CCC(C)CO (centres undefined) [2-methyl-1-butanol] has a mass density of 792.41 ± 0.77 kg/m3.
